These results are taken from patent US7951359B2, “Compositions and methods for therapy or prevention of chemotherapy-induced neuropathy” (Merck Serono SA, priority 2004, dated 2011).

The conditions of test [1]: monkeys; cited from earlier work.
A further test concerns taxol induced neuropathy. Briefly: Electrophysiological monitoring in taxol induced neuropathy, co-administration. The class given is in vivo, rat. How it is done: The aim of the following experiment was to investigate the potential neuroprotective effect of IL6 in an additional model of chemotherapeutic induced neuropathy mediated by taxol. The potential preventive effect of IL-6 co-administration was tested. Administration of IL-6 was initiated together with taxol administration. The doses of IL-6 of 3 and 10 μg/kg were administered daily or in the case 10 μg/kg also only 3 times per week.
Females 10 weeks old aged Dark Agouti rats were used, 12 animals per group were included as following
The taxol was diluted in a solution of cremophor/ethanol/dextrose 5% and administered twice a week during 4 weeks.
4-MC and test compounds treatment was initiated the first day of intoxication and was stopped at the end of the study.
The study was performed on 8 weeks (1 week for the baseline, 4 weeks for the taxol intoxication and 3 weeks of recovery).
Control, taxol, and taxol-IL-6 co-administered group of rats at the indicated doses were subjected to electrophysiological monitoring to assess the effect of IL-6 in taxol-induced loss of fiber/nerve function.
Sensitive nerve conduction velocity (SNCV) was also recorded. The tail skin electrodes were placed as follows: a reference needle inserted at the base of the tail and an anode needle placed 30 mm away from the reference needle toward the extremity of the tail. A ground needle electrode was inserted between the anode and reference needles. The caudal nerve was stimulated with a series of 20 pulses (for 0.2 ms) at an intensity of 12.8 mA. The velocity was expressed in m/s.
H-wave reflex was recorded in the hind footpad muscle after stimulation of the sciatic nerve. […] The sciatic nerve was stimulated with a single 0.2 ms pulse at supramaximal intensity. The amplitude (mV) of H wave and the proportion of animal lacking H wave response were the parameters studied.

For test [2], the system named is vincristine induced neuropathy. Briefly: Morphometric analysis of sciatic nerve in vincristine-treated rats. The class given is in vivo, rat. On the procedure:
Histomorphometric analyses were carried out as described in Example 18 at the completion of the experiments, to explore morphologic changes occurring in fiber and axon diameter and myelin thickness in rats treated with vincristine and in rats co-administrated with IL-6.
With vincristine, morphometric analysis was performed 2 week after the end of vincristine administration on 3 animals per group. The animals were anesthetized by IP injection of 100 mg/kg Imalgène 500®. A 5 mm segment of sciatic nerve was excised, fixed overnight with 4% glutaraldehyde (Sigma, L'Isle d'Abeau-Chesnes, France) in phosphate buffered saline (PBS) (pH=7.4) and maintained in 30% sucrose and stored at 4° C. until further processing. At the time of use, the nerve sample was post-fixed in 1% osmium tetroxide (Sigma, L'Isle d'Abeau-Chesnes, France) in PBS for 2 h, dehydrated in serial alcohol solution, and embedded in Epon. Embedded tissues were then placed at 70° C. during 3 days to allow polymerization of the tissue wax. Cross sections of 1.5 μm thick were performed and they were stained with a 1% toluidine blue solution (Sigma, L'Isle d'Abeau-Chesnes, France) for 2 min, dehydrated and mounted on Eukitt. Twelve sections per sample were examined using an optical microscope (Nikon, Tokyo, Japan) and analyzed using, a semi-automated digital image analysis software (Biocom, France). The fiber diameter (a), axon diameter (b), and myelin thickness (c) were measured as illustrated below.

Test [3] relates to vincristine induced neuropathy. Kind of test: Hot plate test in vincristine-treated rats. The class given is in vivo, rat. How it is done:
The rat was placed inside a glass cylinder of 17 cm height and 21 cm diameter on a heating-plate maintained at 52° C. (Medite OTS 40, Microm, Francheville, Rhône, France). The animal behavior was observed, particularly the licking of a foot and the adjusted leap. The latency before licking a foot or before jumping to escape the heat (adjusted leap) was recorded. The time needed to feel the thermal pain is related to the thermal sensitivity and tends to increase when thermal sensitivity is altered.
For orientation: In hot-plate and tail-flick tests a longer latency is read as antinociception.

For test [4], the system named is vincristine induced neuropathy. Briefly: Walking test (motor coordination) in vincristine-treated rats. The class given is in vivo, rat. The conditions noted are these: IL-6 0.3, 1, 3, 10 μg/kg SC daily; 2 and 3 weeks. On the procedure: The motor coordination was assessed using walking test, which consists at measuring the time taken by a rat placed at one extremity of a 100 cm-long horizontal wooden rod of 5.5 cm diameter, 40 cm above the table, to cover a distance of 1 m on this rod. Three tests (maximum duration: 60 s each) were performed, and the mean value was calculated and retained as characteristic value. If the animal fell down, it was scored with a maximum of 60 s.

The subject of test [5] is vincristine induced neuropathy. Kind of test: Hindpaw skin biopsy, density of dermal nerve fibers in vincristine-treated rats. The class given is in vivo, rat. The settings on record: IL-6 10 μg/kg.
Method: A 5-10 mm diameter area of skin was punch-biopsied from the hindpaw. Skin samples were immediately fixed overnight in paraformaldehyde at 4° C., incubated (overnight) in 30% sucrose in 0.1 M PBS for cryoprotection, embedded in OCT and frozen at −80° C. until cryocut. 50 μm-thick cryosections were then cut vertical to the skin surface with a cryostat. Free-floating sections were incubated for 7 days in a bath of rabbit anti-protein gene product 9.5 (1:10000; Ultraclone, Isle of Man, UK) at 4° C. The sections were then processed to reveal immunoreactivity according to the ABC peroxidase method. Briefly, they were incubated in for 1 hr with biotinylated anti-goat antibody (1:200), then 30 min in the avidin biotinylated complex at room temperature. Peroxidase activity was visualized using DAB system. Sections were then counterstained with eosin or hematoxylin. Sections were dehydrated, cleared with bioclear and mounted on eukitt. The number of dermal nerves of 3 microscope fields was counted manually under 40 magnification view.
Test [6] deals with Hybridoma growth factor (HGF) activity. Kind of test: Hybridoma growth factor (HGF) activity of IL-6. The class given is cell-based. The settings on record: based on Hybridoma growth factor (HGF) activity. An excerpt: Recombinant human IL-6 (r-hlL-6) is produced in genetically engineered Chinese Hamster Ovary (CHO) cells. The production process begins with the growth and expansion of cells from a working cell bank (WCB) and continues under conditions where r-hlL-6 is secreted into the culture medium. The r-hlL-6 was harvested and purified from culture medium of the engineered cells.

Turning to “IL-6: Recombinant human IL-6 produced in genetically engineered Chinese Hamster Ovary (CHO) cells”, the “active dose as thrombopoietic factor” value in test [1] was 0.01 mg/kg. Further, the “H wave latency under taxol” value with taxol induced neuropathy (IL-6 3 or 10 μg/kg daily or 10 μg/kg 3 times per week, sc) is reported as “prevent/reduce H wave latency”. The “alterations in SNCV by taxol” value in the test on taxol induced neuropathy (IL-6 3 or 10 μg/kg daily or 3 times per week) is recorded as “prevent alterations in SNCV”. Further, in the test with taxol induced neuropathy (IL-6 at all the dosages tested, throughout the experiment), the “reduction in H wave amplitude by taxol” value is “significantly prevented the reduction in H wave amplitude”. Besides, the “preventive effects compared with 4-MC co-administration” value in the test with taxol induced neuropathy (IL-6 vs 4-MC) is on record as “more significant than those of 4-MC co-administration”. In addition, in test [2] (IL-6 0.3-10 μg/kg SC daily), the “decrease in axon diameter by vincristine” value was “significantly reduced/prevented the decrease in axon diameter” and the “percentage of degenerated fibers in vincristine treated rats” value is “decreased the percentage of degenerated fibers”. In test [2] (IL-6 1-10 μg/kg SC daily), the vincristine-induced fiber shrinkage result is reported as “prevented vincristine-induced fiber shrinkage” and the vincristine-induced myelin loss entry is “reduced/prevented vincristine-induced myelin loss”. Moreover, in test [3] (IL-6 0.3, 1, 3, 10 μg/kg SC daily, 5 weeks), the “prevention of vincristine-induced nociception loss (hot plate)” value is reported as “significantly prevented nociception”. Moreover, the “protection from vincristine-induced nociception loss compared with 4-MC” value in test [3] (IL-6 0.3-10 μg/kg SC vs 4-MC 10 μg/kg IP) is “confers better protection that 4-MC”. For the same substance, in test [4], the “walking test, time to traverse the rod versus vincristine alone” value was “traversed the rod faster”. Besides, the “dermal fiber loss by vincristine” value in test [5] was “fully prevented”. Further, the potency in test [6] is listed as 23.3×10^6 IU/ml.
